Data as given in patent US20110028719A1, “SCREENING METHODS FOR AMYLOID BETA MODULATORS” (priority 2006, published 2011).

biological target: immobilized Aβ fibrils (Homo sapiens, UniProt P05067); experiment: FAC-MS assay of free Aβ monomer (indicator) binding to immobilized Aβ fibrils in the presence of test compounds; conditions: FAC-MS % shift of breakthrough time of free Aβ1-42 monomer (1 μM) on immobilized Aβ fibrils; compounds 1-10 μM in 20 mM NH4OAc, 1% DMSO; void marker M3
Sequence (P05067 672-713 limits assumed): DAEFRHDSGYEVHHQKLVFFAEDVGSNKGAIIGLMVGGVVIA

Structure (SMILES)	% of Shift [%]
O=S(=O)([O-])OC1C(OS(=O)(=O)[O-])C(OS(=O)(=O)[O-])C(OS(=O)(=O)[O-])C(OS(=O)(=O)[O-])C1OS(=O)(=O)[O-].[K+].[K+].[K+].[K+].[K+].[K+] (stereo not drawn) [Compound I-6005, myo-inositol hexasulfate hexapotasium, reference compound]	4
CC(C)C(=O)OC1C(OC(=O)C(C)C)C(OC(=O)C(C)C)C(OC(=O)C(C)C)C(OC(=O)C(C)C)C1OC(=O)C(C)C (stereo not drawn) [Compound 37387007, 2,3,4,5,6-pentakis(isobutyryloxy)cyclohexyl 2-methylproanoate]	5
CO[C@H]1[C@H](O)[C@@H](O)[C@@H](O)[C@H](O)[C@@H]1O [D-Pinitol, D-pinitol, reference compound]	3
CC(C)C(=O)OC1C(O)C(OC(=O)C(C)C)C(OC(=O)C(C)C)C(OC(=O)C(C)C)C1OC(=O)C(C)C (stereo not drawn) [Compound 37387001, 2-hydroxy-3,4,5,6-tetrakis(isobutyryloxy)cyclohexyl 2-methylpropanoate]	4
O=C(/C=C/c1ccc(O)c(O)c1)O[C@@H]1C[C@](O)(C(=O)O)C[C@@H](O)[C@H]1O [Compound C-3878, Chlorogenic acid, reference compound]	2
O=P(O)(O)O[C@H]1[C@H](OP(=O)(O)O)[C@@H](OP(=O)(O)O)[C@H](OP(=O)(O)O)[C@@H](OP(=O)(O)O)[C@H]1OP(=O)(O)O [Compound P-3168, Phytic acid, reference compound]	2

same assay, conditions: FAC-MS % shift of free Aβ monomer breakthrough on immobilized Aβ fibrils in presence of the compound (screen, Table 2)

Structure (SMILES)	Aβ Shift
Oc1c(I)cc(Cl)c2cccnc12	2

same assay, conditions: FAC-MS screen; shift of free Aβ monomer breakthrough on immobilized Aβ fibrils in presence of compound; scale not given

Structure (SMILES)	Aβ Shift
CC(C)C(=O)O[C@H]1[C@H](OC(=O)C(C)C)[C@@H](OC(=O)C(C)C)[C@H](OC(=O)C(C)C)[C@@H](OC(=O)C(C)C)[C@H]1OC(=O)C(C)C	5
O=C1OC2C3CC([C@@H]2I)[C@@H](CO)C13 (stereo partly drawn)	0
Cc1ccc(C(C)(C)CC(C)NC2CCCC(C)C2C)o1 (stereo not drawn)	1
NC12C3C4C5C1C2C(Br)(C43)C51OCCO1 (stereo not drawn)	0
CC(O)C12C3C4C5C1C2C(Br)(C43)C51OCCO1 (stereo not drawn)	0
CCC(=O)O[C@H]1[C@H](OC(=O)CC)[C@@H](OC(=O)CC)[C@H](OC(=O)CC)[C@@H](OC(=O)CC)[C@H]1OC(=O)CC	4
CC(C)(C)C(=O)O[C@H]1[C@H](OC(=O)C(C)(C)C)[C@@H](OC(=O)C(C)(C)C)[C@H](OC(=O)C(C)(C)C)[C@@H](OC(=O)C(C)(C)C)[C@H]1OC(=O)C(C)(C)C	4
CC(C)C(=O)O[C@@H]1[C@@H](OC(=O)C(C)C)[C@H](OC(=O)C(C)C)[C@H](O)[C@H](OC(=O)C(C)C)[C@H]1OC(=O)C(C)C	4
CC[N+](CC)(CC)CCCOC1CC(C)CCC1C(C)C (stereo not drawn)	2
CC1CCCC(N/C=C2\C(=O)Nc3ccccc32)C1C (stereo not drawn)	2
O=C(O)C1C2CC3C(OC(=O)C31)C2Cl (stereo not drawn)	2
CC1CC(C)CC(OC(=O)c2ccco2)C1 (stereo not drawn)	0
Cc1ccc[n+](CC(=O)OC2CC(C)CCC2C(C)C)c1 (stereo not drawn)	1
CC1CCCC(NS(=O)(=O)c2cccs2)C1C (stereo not drawn)	1

Next, values leading:

Aβ Shift	Structure (SMILES)
1	CC12CC3CC(O)(C1)CC(C(=O)O)(C3)C2 (stereo not drawn)
1	CC1CC(C)C(C(=O)c2ccccc2)C(O)C1 (stereo not drawn)
1	COC(=O)C12CC3(C)CC(C)(CC(C)(C3)C1)C2
1	CC(C)C1CCC(C)C(OC(=O)C2C3CCCCC32)C1 (stereo not drawn)
1	CC12CC3(C)CC(N)(C1)CC(O)(C2)C3
1	COC(=O)C12CCC(C)(C(O)C1)C2(C)C (stereo not drawn)
0	CC1CCN(CC(O)COC2CC(C)CC(C)(C)C2)CC1 (stereo not drawn)
2	CC1CCCC(NC(=O)c2csc3c2CCCC3)C1C (stereo not drawn)
1	CC(C)(C)C1CC(C(=O)O)CC(C(C)(C)C)C1 (stereo not drawn)
0	CC1CC2=C(/C(=N/O)C1)C1(O)CC(C)CC(C)(C2)C1 (stereo not drawn)
0	CC1(C)CC(=O)C2=C(C1)CC1(C)CC(C)(C)CC2(O)C1 (stereo not drawn)
2	CC1CCC(COC(=O)C[N+]2(C)CCCCC2)C(C)C1 (stereo not drawn)
1	CC12CC3CC(C)(C1)CC(C(=O)N1CCOCC1)(C3)C2
1	Cc1cc(NC(=O)C23CC4CC(C)(CC(C)(C4)C2)C3)no1
2	CC1CCC(C(C)C)C(OC(=O)NC(=O)C(F)(F)F)C1 (stereo not drawn)
0	CC1CC(NC(=O)c2cccs2)CC(C)(C)C1 (stereo not drawn)
0	CCCCCCCCC(=O)NC1CC(C)CC(C)(C)C1 (stereo not drawn)
2	CC12CC3CC(C)(C1)CC(N)(C3)C2
